# Target: T1, fl-HDAC4 (Homo sapiens, UniProt P56524)
# T1 construct: Full-length (fl) [A.A. 1-1082] recombinant human histone deacetylase 4 (rhHDAC4) protein; FLAG (N); GST (given as 'with or without'); made in house; host or cells: HEK293-T
# Assay: HDAC4 enzymatic assay with Lys(Tfa)-AMC substrate
# Format: biochemical
# Method: HDAC4 Enzymatic Assay. HDAC4 activity of the various recombinant forms used through these studies was assayed using the small non-protein Lys(Tfa)-AMC as described previously (Bottomley et al. J. Biol. Chem. 2008, 283:26694-26704). The specificity of this assay is documented via its inhibition by a small molecule trifluoroacetylthiophene-trifluoromethylketone derivative (TFT-PIP) described previously (id.).
# Thus, TasQ's inhibition of HDAC4/NCoR1 formation involves only its binding to HDAC4. To resolve whether such TasQ binding involves the ZCD vs. ZRD in HDAC4, we took advantage of the fact that while HDAC4 has only marginal deacetylase activity against acetylated lysine-containing proteins, it can deacetylate a small non-protein trifluoroacetamide substrate (a.k.a., Lys(Tfa)-AMC). This reaction is inhibited by a small molecule trifluoroacetylthiophene-trifluoromethylketone derivative [a.k.a., TFT-PIP (FIG. 16)] due to its binding to the catalytic Zn^2+ in the ZCD, which locks the ZRD in the open conformation (Bottomley 2008).
# T1 sequence (P56524 whole entry): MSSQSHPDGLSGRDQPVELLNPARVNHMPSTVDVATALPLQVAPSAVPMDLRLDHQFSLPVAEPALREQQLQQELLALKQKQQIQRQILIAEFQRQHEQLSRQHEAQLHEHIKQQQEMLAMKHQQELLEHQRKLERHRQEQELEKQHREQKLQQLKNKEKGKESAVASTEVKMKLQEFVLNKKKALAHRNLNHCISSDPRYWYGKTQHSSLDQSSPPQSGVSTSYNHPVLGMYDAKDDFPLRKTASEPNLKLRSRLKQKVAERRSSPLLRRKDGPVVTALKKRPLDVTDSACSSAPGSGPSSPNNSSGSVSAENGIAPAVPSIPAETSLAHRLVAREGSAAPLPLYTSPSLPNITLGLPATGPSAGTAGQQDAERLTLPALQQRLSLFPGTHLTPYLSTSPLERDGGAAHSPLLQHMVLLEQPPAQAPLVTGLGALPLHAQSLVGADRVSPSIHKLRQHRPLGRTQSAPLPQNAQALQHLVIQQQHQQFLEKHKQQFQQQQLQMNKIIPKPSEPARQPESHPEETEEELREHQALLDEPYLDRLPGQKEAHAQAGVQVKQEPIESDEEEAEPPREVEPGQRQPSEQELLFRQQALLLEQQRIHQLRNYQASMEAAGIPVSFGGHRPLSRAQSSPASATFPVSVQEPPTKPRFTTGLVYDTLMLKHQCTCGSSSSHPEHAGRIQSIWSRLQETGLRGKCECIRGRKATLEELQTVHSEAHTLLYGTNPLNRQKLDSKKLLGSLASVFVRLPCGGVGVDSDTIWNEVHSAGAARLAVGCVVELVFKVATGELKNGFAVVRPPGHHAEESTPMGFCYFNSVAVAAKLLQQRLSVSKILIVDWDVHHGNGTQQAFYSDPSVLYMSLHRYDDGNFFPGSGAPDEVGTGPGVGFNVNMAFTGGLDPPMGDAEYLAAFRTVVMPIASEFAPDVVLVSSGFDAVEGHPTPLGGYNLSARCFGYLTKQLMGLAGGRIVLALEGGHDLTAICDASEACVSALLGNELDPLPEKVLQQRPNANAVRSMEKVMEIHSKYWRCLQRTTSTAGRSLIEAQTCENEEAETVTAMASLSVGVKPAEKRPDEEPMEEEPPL
structure (smiles),measurement,value
O=C(c1ccc(C(=O)C(F)(F)F)s1)N1CCn2c(-c3ccccc3)cnc2C1 [TFT-PIP],effect on enzymatic activity of fl-HDAC4,inhibited
